Our source for the T/C values is PubChem BioAssay AID330 (DTP/NCI, 2004).

This test relates to P388 leukemia ip, CD2F1 mice, survival T/C. Kind of test: NCI In Vivo Anticancer Drug Screen. Data for tumor model P388 Leukemia (intraperitoneal) in CD2F1 (CDF1) mice. Particulars: endpoint: median survival time, higher = longer survival. A digest of the protocol: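 Mice carrying the transplanted tumor received test compound or vehicle. Survival was recorded in each group, and the value is the treated-group measurement divided by that of the vehicle-treated control group.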

[1] abbreviates: dose: 50.0 mg/kg/injection, schedule: Q01DX005 (ip), vehicle: saline with Tween-80.
Where [2] appears, read: dose: 100.0 mg/kg/injection, schedule: Q01DX005 (ip), vehicle: saline with Tween-80.
The mark [3] stands for this setting: dose: 200.0 mg/kg/injection, schedule: Q01DX005 (ip), vehicle: saline with Tween-80.
[4] abbreviates: dose: 50.0 mg/kg/injection, schedule: Q04DX003 (ip), vehicle: saline.
Where [5] appears, read: dose: 50.0 mg/kg/injection, schedule: Q01DX005 (ip), vehicle: Klucel (hydroxypropylcellulose) (HPC).
Where [6] appears, read: dose: 100.0 mg/kg/injection, schedule: Q01DX005 (ip), vehicle: Klucel (hydroxypropylcellulose) (HPC).
Setting [7] is: dose: 200.0 mg/kg/injection, schedule: Q01DX005 (ip), vehicle: Klucel (hydroxypropylcellulose) (HPC).
The mark [8] stands for this setting: dose: 50.0 mg/kg/injection, schedule: Q01DX009 (ip), vehicle: Klucel (hydroxypropylcellulose) (HPC).
Where [9] appears, read: dose: 100.0 mg/kg/injection, schedule: Q01DX009 (ip), vehicle: Klucel (hydroxypropylcellulose) (HPC).
The mark [10] stands for this setting: dose: 200.0 mg/kg/injection, schedule: Q01DX009 (ip), vehicle: Klucel (hydroxypropylcellulose) (HPC).
The mark [11] stands for this setting: dose: 60.0 mg/kg/injection, schedule: Q01DX005 (ip), vehicle: saline.
Setting [12] is: dose: 120.0 mg/kg/injection, schedule: Q01DX005 (ip), vehicle: saline.

“And” between values parts separate entries of the source, which are not always exact repeats. Identical values can stand only once. Toxic doses and inconclusive results are not listed.

With `O=C1c2ccccc2C2(c3ccc(O)cc3)c3ccccc3Oc3cccc1c32` (stereo not drawn), the T/C reads like this: under setting [1], 90 % of control; under setting [2], 92 % of control; under setting [3], 95 % of control.
As for `Nc1nc2c(nnn2C2OC(CO)C(O)C2O)c(=O)[nH]1` (stereo not drawn), the T/C was 113 % of control under setting [1] and 101 % of control under setting [2].
Regarding `COC(=O)C(CO)Nc1ccccc1` (stereo not drawn), the T/C runs as follows: (dose: 60.0 mg/kg/injection, schedule: Q01DX005 (ip), vehicle: saline with Tween-80) 103 % of control; (dose: 120.0 mg/kg/injection, schedule: Q01DX005 (ip), vehicle: saline with Tween-80) 99 % of control; (dose: 240.0 mg/kg/injection, schedule: Q01DX005 (ip), vehicle: saline with Tween-80) 96 % of control.
For the compound `COC(=O)NC1C(=O)CCC(=O)C1C(N)=O` (stereo not drawn), the T/C runs as follows: (dose: 7.5 mg/kg/injection, schedule: Q01DX005 (ip), vehicle: saline with Tween-80) 86 % of control; (dose: 15.0 mg/kg/injection, schedule: Q01DX005 (ip), vehicle: saline with Tween-80) 98 % of control.
For the compound `COc1ccc(C(SCC(N)C(=O)O)(c2ccccc2)c2ccc(OC)cc2)cc1` (stereo not drawn), the T/C runs as follows: (dose: 33.0 mg/kg/injection, schedule: Q04DX003 (ip), vehicle: saline) 185 % of control; under setting [4], 165 % of control; (dose: 75.0 mg/kg/injection, schedule: Q04DX003 (ip), vehicle: saline) 90 % of control.
For the compound `CC1C[P+](c2ccccc2)(c2ccccc2)Cc2ccccc21` (stereo not drawn), the T/C by setting is: (dose: 6.25 mg/kg/injection, schedule: Q01DX001 (ip), vehicle: saline) 101 % of control and 105 % of control and 108 % of control; (dose: 12.5 mg/kg/injection, schedule: Q01DX001 (ip), vehicle: saline) 101 % of control and 117 % of control.
As to `CC(C)(C)c1cc2c(O)c(c1)Cc1cc(C(C)(C)C)cc(c1O)Cc1cc(C(C)(C)C)cc(c1O)Cc1cc(C(C)(C)C)cc(c1O)C2`, the T/C was 100 % of control under setting [5], 102 % of control under setting [6] and 96 % of control under setting [7].
For the compound `Cc1ccc(S(=O)(=O)[n+]2ccccc2)cc1`, the T/C was 104 % of control (dose: 100.0 mg/kg/injection, schedule: Q01DX001 (ip), vehicle: saline); 100 % of control (dose: 200.0 mg/kg/injection, schedule: Q01DX001 (ip), vehicle: saline); 100 % of control (dose: 400.0 mg/kg/injection, schedule: Q01DX001 (ip), vehicle: saline).
Turning to `O=c1[nH]c(=O)c2cc([N+](=O)[O-])cc([N+](=O)[O-])c2[nH]1`, the T/C is 118 % of control under setting [4] and 89 % of control (dose: 100.0 mg/kg/injection, schedule: Q04DX003 (ip), vehicle: saline).
On to `N#Cc1c(-c2ccc(Cl)cc2)c(-c2ccc(Cl)cc2)nn(CCOC(=O)CCC(=O)O)c1=O`, for which the T/C is, setting by setting: (dose: 3.13 mg/kg/injection, schedule: Q01DX005 (ip), vehicle: distilled water + Tween-80) 100 % of control; (dose: 6.25 mg/kg/injection, schedule: Q01DX005 (ip), vehicle: distilled water + Tween-80) 100 % of control; (dose: 12.5 mg/kg/injection, schedule: Q01DX005 (ip), vehicle: distilled water + Tween-80) 105 % of control; (dose: 12.5 mg/kg/injection, schedule: Q01DX005 (ip), vehicle: saline) 104 % of control; (dose: 12.5 mg/kg/injection, schedule: Q01DX005 (ip), vehicle: sodium bicarbonate) 103 % of control; (dose: 12.5 mg/kg/injection, schedule: Q04DX002 (ip), vehicle: distilled water + Tween-80) 106 % of control. Further, the T/C is 114 % of control and 117 % of control (dose: 25.0 mg/kg/injection, schedule: Q01DX005 (ip), vehicle: distilled water + Tween-80); 112 % of control (dose: 25.0 mg/kg/injection, schedule: Q01DX005 (ip), vehicle: saline); 112 % of control (dose: 25.0 mg/kg/injection, schedule: Q01DX005 (ip), vehicle: sodium bicarbonate); 105 % of control and 113 % of control (dose: 25.0 mg/kg/injection, schedule: Q04DX002 (ip), vehicle: distilled water + Tween-80); 172 % of control and 184 % of control (dose: 50.0 mg/kg/injection, schedule: Q01DX005 (ip), vehicle: distilled water + Tween-80); 180 % of control (dose: 100.0 mg/kg/injection, schedule: Q01DX005 (ip), vehicle: saline). Moreover, the T/C (dose: 100.0 mg/kg/injection, schedule: Q01DX005 (ip), vehicle: sodium bicarbonate) is 202 % of control; the T/C (dose: 100.0 mg/kg/injection, schedule: Q04DX002 (ip), vehicle: distilled water + Tween-80) was 115 % of control and 92 % of control.
Turning to `CCOc1c(N=Nc2cccc([N+](=O)[O-])c2)c(C)nn1C(=S)S`, the T/C is 97 % of control (dose: 60.0 mg/kg/injection, schedule: Q01DX005 (ip), vehicle: Klucel + Tween-80); 97 % of control (dose: 120.0 mg/kg/injection, schedule: Q01DX005 (ip), vehicle: Klucel + Tween-80); 98 % of control (dose: 240.0 mg/kg/injection, schedule: Q01DX005 (ip), vehicle: Klucel + Tween-80).
With `CC(C)CC1CCCC12NC(=O)NC2=O` (stereo not drawn), the T/C by setting is: under setting [5], 97 % of control; under setting [6], 89 % of control; under setting [7], 93 % of control.
For `COc1ccc(C2OC(N)=C(O)C2=O)cc1OC` (stereo not drawn), the T/C reads like this: (dose: 60.0 mg/kg/injection, schedule: Q01DX005 (ip), vehicle: Klucel (hydroxypropylcellulose) (HPC)) 100 % of control; (dose: 120.0 mg/kg/injection, schedule: Q01DX005 (ip), vehicle: Klucel (hydroxypropylcellulose) (HPC)) 91 % of control; (dose: 240.0 mg/kg/injection, schedule: Q01DX005 (ip), vehicle: Klucel (hydroxypropylcellulose) (HPC)) 95 % of control.
As to `CCC[C@@H]1C[C@@H](OC(=S)SC)C[C@H]2CCC(=O)N12`, the T/C (dose: 50.0 mg/kg/injection, schedule: Q01DX005 (ip), vehicle: Klucel + Tween-80) is 102 % of control; the T/C (dose: 100.0 mg/kg/injection, schedule: Q01DX005 (ip), vehicle: Klucel + Tween-80) was 93 % of control; the T/C (dose: 200.0 mg/kg/injection, schedule: Q01DX005 (ip), vehicle: Klucel + Tween-80) was 107 % of control.
In the case of `CCOC(=O)c1ccc(NC(=O)Nc2nnc(C)c(C)n2)cc1`, the T/C by setting is: under setting [8], 92 % of control; under setting [9], 88 % of control; under setting [10], 88 % of control.
Regarding `Cc1ccc(N(O)C(C)(C)C)cc1`, the T/C is, setting by setting: (dose: 25.0 mg/kg/injection, schedule: Q01DX009 (ip), vehicle: saline with Tween-80) 97 % of control; (dose: 25.0 mg/kg/injection, schedule: Q04DX003 (ip), vehicle: gum acacia) 99 % of control; (dose: 50.0 mg/kg/injection, schedule: Q01DX009 (ip), vehicle: saline with Tween-80) 91 % of control; (dose: 50.0 mg/kg/injection, schedule: Q04DX003 (ip), vehicle: gum acacia) 100 % of control; (dose: 100.0 mg/kg/injection, schedule: Q01DX009 (ip), vehicle: saline with Tween-80) 102 % of control; (dose: 100.0 mg/kg/injection, schedule: Q04DX003 (ip), vehicle: gum acacia) 110 % of control. For the same compound, for the setting “dose: 200.0 mg/kg/injection, schedule: Q04DX003 (ip), vehicle: gum acacia”, the T/C was 100 % of control.
In the case of `CN(C)CC(C(=O)/C=C/c1ccccc1)C(C)(C)C` (stereo not drawn), the T/C is, setting by setting: under setting [11], 105 % of control; under setting [12], 104 % of control.
As for `CCN(CC)c1ccc(N=C(NC#N)SC)cc1`, the T/C is, setting by setting: under setting [8], 104 % of control; under setting [9], 103 % of control; under setting [10], 106 % of control.
`CC(C)=CCCC1=C2[C@H](O)C=C(C)C[C@@H]2OC1=O`: the T/C runs as follows: under setting [1], 100 % of control; under setting [2], 99 % of control; under setting [3], 101 % of control.
Consider `CCCCN=NNCCCC`, for which the T/C is 110 % of control (dose: 12.5 mg/kg/injection, schedule: Q01DX005 (ip), vehicle: saline with Tween-80) and 151 % of control under setting [1].
As for `CC(Cl)CN(CC(C)Cl)C(=O)Oc1ccc(CC(N)C(=O)O)cc1` (stereo not drawn), the T/C runs as follows: under setting [8], 91 % of control; under setting [9], 89 % of control; under setting [10], 97 % of control.
Turning to `CC(=O)Nc1c(I)c(C(=O)NC2C(O)OC(CO)C(O)C2O)c(I)c(N(C)C(C)=O)c1I` (stereo not drawn), the T/C is 100 % of control under setting [11]; 100 % of control under setting [12]; 107 % of control (dose: 240.0 mg/kg/injection, schedule: Q01DX005 (ip), vehicle: saline).
On to `CCCCC(CC)COCC(O)Cn1cnc2c(N)ncnc21` (stereo not drawn), for which the T/C is, setting by setting: under setting [5], 104 % of control; under setting [6], 97 % of control; under setting [7], 91 % of control.
